Earlier results, collected in patent US20020064788A1, “Systematic approach to mechanism-of-response analyses” (priority 2000, published 2002).
Like-named read-outs stand apart in the source and are kept apart here.

Legend:
androgen-dependent cells = details: ouabain-induced decrease in Na+K+-ATPase activity
[1] = tested on: malignant and normal cells
[2] = tested on: intracellular Ca^2+ levels; c-fos, c-jun, AP-1; details: partial inhibition of Na+K+-ATPase
Glioblastoma cell lines = details: 30-60 nM, several Glioblastoma cell lines
breast cancer = details: women on digitalis, five years after mastectomy
[3] = tested on: Daudi (B-cell) cell lines; details: non-toxic doses
[4] = tested on: Jurkat (T-cell) cell lines

Q: For `C[C@H]1O[C@@H](O[C@H]2[C@@H](O)C[C@H](O[C@H]3[C@@H](O)C[C@H](O[C@H]4CC[C@@]5(C)[C@H](CC[C@@H]6[C@@H]5CC[C@]5(C)[C@@H](C7=CC(=O)OC7)CC[C@]65O)C4)O[C@@H]3C)O[C@@H]2C)C[C@H](O)[C@@H]1O` [Digitoxin], which “inhibition of Na+K+-ATPase” value (Na^+K^+-ATPase) is on record?
A: specific inhibitors

Q: Which “inhibition of Na+K+-ATPase” value (Na^+K^+-ATPase) does the source give for `CC/C(=C(\c1ccccc1)c1ccc(OCCN(C)C)cc1)c1ccccc1` [tamoxifen] here?
A: appears to inhibit

Q: For `C[C@@H]1O[C@@H](O[C@H]2C[C@@H](O)[C@]3(CO)[C@H]4[C@H](O)C[C@]5(C)[C@@H](C6=CC(=O)OC6)CC[C@]5(O)[C@@H]4CC[C@]3(O)C2)[C@H](O)[C@H](O)[C@H]1O` [ouabain], which “inhibition of Na+K+-ATPase” value (Na^+K^+-ATPase) is on record?
A: specific inhibitors

Q: What about the “sensitivity of cells to cisplatin” value (androgen-dependent cells) of the same molecule?
A: reduces sensitivity

Q: And the sensitization to irradiation ([1]; malignant cells)?
A: sensitizes

Q: What about the sensitization to irradiation ([1]; normal cells) of the same molecule?
A: not

Q: What about the “expression of c-fos, c-jun, and the transcription factor AP-1” value [2] of the same molecule?
A: increases

Q: And the “intracellular Ca2+ levels” value [2]?
A: increases

Q: For digitalis, which apoptosis (Glioblastoma cell lines) is on record?
A: induces apoptosis

Q: And the cell adherence (Glioblastoma cell lines)?
A: affects cell adherence

Q: And the “reduction in recurrence of breast cancer” value (breast cancer)?
A: 9.6 fold

Q: What about the apoptosis [3] of the same molecule?
A: induces apoptosis

Q: What about the apoptosis ([4]; non-toxic doses, Jurkat) of the same molecule?
A: induces apoptosis

B1: Fas ligand: protein which binds to Fas receptor and strongly induces apoptosis (protein, UniProt P48023 130-281, looked up)
Tumor necrosis factor ligand …: QIGHPSPPPEKKELRKVAHLTGKSNSRSMPLEWEDTYGIVLLSGVKYKKGGLVINETGLYFVYSKVYFRGQSCNNLPLSHKVYMRNSKYPQDLVMMEGKMMSYCTTGQMWARSSYLGAVFNLTSADHLYVNVSELSLVNFEESQTFFGLYKL
Q: With B1 as the molecule, how does the apoptosis ([4]; Jurkat cells, monitored by flow cytometry) read?
A: induces apoptosis
